US20130101624A1, “LINEAR IGE PEPTIDE EPITOPES OF HAZELNUT ALLERGEN COR A 1 AND CELERY ANTIGEN API 1” (CHARITE UNIVERSITATSMEDIZIN BERLIN, priority 2010, published 2013)

Key:
[1] = test system: human IgE antibodies (sera of hazelnut allergic patients); test: Human IgE antibody binding to Cor a 1.0301 derived 12-meric peptide array (SPOT pepscan), probed with sera; details: sera of 13 hazelnut allergic patients
Text: An array of overlapping peptides representing the entire sequence of major hazelnut allergen Cor a 1.0301 was synthesized and probed with the participants' sera. Sera of hazelnut allergic patients show binding to different distinct regions of Cor a 1. In particular, the region of dodecapeptides 17 to 22 is the most important region for IgE-binding.
(§1) Subsequently, these sequences were synthesized as peptide arrays on cellulose membranes according to SPOT technology. A highly specific secondary anti-human IgE antibody with minimum cross-reactivity towards cellulose membrane-bound peptides was employed.
Synthetic arrays were probed with sera randomly chosen from a well described cohort of subjects, including 21 patients with a defined allergic reaction to celery, 13 patients with a defined allergic reaction to hazelnut and 17 healthy individuals. Captured human IgE antibodies were detected by a HRP-labeled secondary antibody and binding was visualized by chemiluminescence. […]
Human IgE antibody binding studies: The spotted peptide arrays were prewashed with ethanol (1×10 min), washed with Tris-buffered saline (TBS), pH 8.0 (3×10 min), and blocked for 2 h at room temperature with blocking buffer. […] The signal intensities were recorded as Biomedical Light Units (BLU) by a Lumilmager™ (Boehringer Mannheim GmbH, Mannheim, Germany) using the LumiAnalyst software. […]

[2] = test system: human IgE antibodies (sera of celery allergic patients and healthy subjects); test: Human IgE antibody binding to Api g 1.0101 derived 12-meric peptides arrayed on cellulose membrane (SPOT pepscan), probed with sera; details: for share of celery allergic individuals whose serum IgE responded to the peptide / recognition by sera of celery allergic patients: sera of 21 celery allergic patients; for share of celery allergic individuals whose serum IgE responded to the peptide / IgE binding in sera of healthy controls / recognition by sera of celery allergic patients: diluted 1:5; for share of celery allergic individuals whose serum IgE responded to the peptide: spot positive if SInorm above membrane cut off; for number of celery allergic patients whose sera IgE antibodies bind the sequence: of 21 celery allergic patients; for IgE binding in sera of healthy controls: sera of 17 healthy subjects
Text: as §1
Synthetic arrays were probed with sera randomly chosen from a well described cohort of subjects, including 21 patients with a defined allergic reaction to celery, 13 patients with a defined allergic reaction to hazelnut and 17 healthy individuals. Captured human IgE antibodies were detected by a HRP-labeled secondary antibody and binding was visualized by chemiluminescence.
The optimal conditions for screening the sera of 21 celery allergic patients and 17 healthy controls were as follows: (i) replica of a 12-meric pepscan with a shift of three amino acids covering the Api g 1.0101 sequence (or cor a 1 sequence, respectively) synthesized on high-loaded N-CAPE membranes (640 nmol/cm2-760 nmol/cm2); (ii) prior to treatment with sera, membranes were blocked with the Sigma-Genosys blocking buffer for 2 h at room temperature; (iii) arrays were probed for 16 h at 4° C. with diluted sera (1:5) for IgE antibody binding; (iv) the captured human IgE antibodies were detected with the HRP-labeled anti-human IgE antibody (A 9667, Sigma-Aldrich) and visualized by chemiluminescence; (v) spot signal intensities were measured on a Lumilmager and processed with the LumiAnalyst software. To check the reproducibility of our screening procedure, three different peptide arrays were incubated and evaluated for each person (allergic and healthy).
Sera binding patterns could be reproduced in repeated incubation experiments. Although inter-membrane absolute spot signal intensities differed, the relative differences between spot signal intensities were nearly the same. This enabled comparison of spot signal intensities from different membranes by applying an additional normalization procedure. We defined an IgE antibody binding spot as positive if its normalized signal intensity (SInorm) was higher than the calculated cut off value of the appropriate membrane.
Peptide array synthesis: Overlapping peptide sequences (7-, 12- and 24-mer) with a shift of three amino acids) of Api g 1.0101 or cor a 1 were prepared by a MultiPep SPOT-robot (INTAVIS Bioanalytical Instruments AG, Köln, Germany). Array design was performed with the aid of the in-house software LISA 1.83. Amino acids were used as Fmoc-protected Opfp-esters with the following side protection groups: tert-butyl ester (OtBu) for E and D, tert-butyl ether (tBu) for S, T and Y, tert-butoxycarbonyl (Boc) for K and W, triphenylmethyl (Trt) for C, N, Q and H and 2,2,4,6,7-pentamethyldihydrobenzofuran-5-sulfonyl (Pbf) for R. For standard SPOT-synthesis, double couplings of 0.3 M solutions of amino acids in 1-methyl-2-pyrollidone (NMP; Fluka, Steinheim, Germany) were applied. After the final Fmoc-deprotection step and washing procedure, cleavage of the side chain protecting groups was performed according to our standard two-step deprotection protocol.
Human IgE antibody binding studies: The spotted peptide arrays were prewashed with ethanol (1×10 min), washed with Tris-buffered saline (TBS), pH 8.0 (3×10 min), and blocked for 2 h at room temperature with blocking buffer. The membranes were incubated with the patients' sera (dilution 1:5) in blocking buffer overnight at 4° C., washed with TBS, followed by a second incubation with anti-human IgE antibody (ε-chain specific) conjugated with horse radish peroxidase (HRP) (A 9667, Sigma-Aldrich, St. Louis, USA) in blocking buffer for 2 h at room temperature. To remove excess antibody the membrane was washed with TBS (3×10 min). Detection was performed with Uptilight HRP blot chemiluminescent substrate (Uptima, Interchim, Montiugon Cedex, France) with an exposure time of 2 min. […]

Question: “AGKEKASGLFKA (listed as Corylus avellana) [COR A 1. PEP47]” was tested. Which “recognition by sera of hazelnut allergic patients” value [1] did it give?
Answer: recognized by all sera of hazelnut allergic patients

Question: Which “share of celery allergic individuals whose serum IgE responded to the peptide” value (“share” for short) [2] does the source give for “GDGGPGTLKIIT (listed as Apium graveolens) [compound 16]” here?
Answer: 38%

Question: Which “share” value [2] does the source give for “GGPITTMTLRID (listed as Apium graveolens) [compound 21]” here?
Answer: 29%

Question: Which “number of celery allergic patients whose sera IgE antibodies bind the sequence” value (from here on “number”) [2] does the source give for “IFQGFVIDVDTV (listed as Apium graveolens) [peptide 7]” here?
Answer: at least six

Question: And the “IgE binding in sera of healthy controls” value [2]?
Answer: not reacting with any sera IgE antibody from healthy subjects

Question: What about the “share” value [2] of the same sequence?
Answer: 38%

Question: “IITLPDGGPITT (listed as Apium graveolens) [compound 19]” was tested. Which “share” value [2] did it give?
Answer: 29%

Question: With NHVVLVPTADGG [peptide 34] as the sequence, how does the “number” value [2] read?
Answer: at least six

Question: What about the “IgE binding in sera of healthy controls” value [2] of the same sequence?
Answer: not reacting with any sera IgE antibody from healthy subjects

Question: And the “share” value [2]?
Answer: 29%

Question: For “PHGGSILKSISK (listed as Corylus avellana) [COR A 1. PEP37]”, which “recognition by sera of hazelnut allergic patients” value [1] is on record?
Answer: recognized by all sera of hazelnut allergic patients

Question: For “PTADGGSICKTT (listed as Apium graveolens) [compound 36]”, which “share” value [2] is on record?
Answer: 43%

Question: Which “spot signal intensity (BLU), ranking” value ([2]; average spot signal intensity, chemiluminescence, FIG. 3) does the source give for “VLVPTADGGSIC (listed as Apium graveolens) [peptide 35]” here?
Answer: highest measured spot signal intensity

Question: And the “number” value [2]?
Answer: at least six

Question: And the “IgE binding in sera of healthy controls” value [2]?
Answer: not reacting with any sera IgE antibody from healthy subjects

Question: What about the “IgE binding in sera of healthy controls” value ([2]; listed as VLVPTADGGSIC) of the same sequence?
Answer: no binding

Question: And the “recognition by sera of celery allergic patients” value [2]?
Answer: recognized by the sera from all the celery allergic patients

Question: What about the “recognition by sera of celery allergic patients” value ([2]; listed as VLVPTADGGSIC) of the same sequence?
Answer: recognized by all sera of celery allergic patients

Question: What about the “share” value [2] of the same sequence?
Answer: 100%
